Patent US20060127980A1, “Human excitatory amino acid transporter-2 gene promoter and uses thereof” (priority 2003, published 2006)

What was measured:
Type in all cases: cell-based, human
hEAAT2 transcription = assay: Nuclear run-on assay of hEAAT2 transcription in PHFA; conditions: 7-day treatment
Experimental: FIG. 4A-D. Effect of modulators of hEAAT2 activity on hEAAT2 expression and hEAAT2 promoter activity in PHFA. A. A Northern analysis of hEAAT2 and GAPDH mRNA expression following treatment with EGF (30 ng/ml), TGF-α (30 ng/ml), dbcAMP (200 μM, bromo-cAMP (100 μM) or TNF-α (200 U/ml) for 7 days. B. Nuclear run-on assays determining the relative rates of hEAAT2 and GAPDH transcription as a function of 7-day treatment with the same concentrations of the indicated agents. C. A time course of mRNA expression of hEAAT2 and GAPDH following treatment with EGF, bromo-cAMP or TNF-α (same concentrations as in A.). D. Fold luciferase activity in PHFA transfected with flhEAAT2Prom-luc or various deletion mutants of hEAAT2 and non-transfected controls treated with the indicated compounds for four days.
Primer Extension Analysis and Nuclear Run-on Assays. Primer extension assays were performed as described (Su et al., 2000, Oncogene 19(30):3411-3421). A primer with the sequence 5′-[…]-3′ (SEQ ID NO:6) complementary to the 5′ UTR of the hEAAT2 cDNA was used for this assay. Nuclear run-on assays were performed as described (Su et al., 1997, Proc Natl Acad Sci USA 94(17):9125-9130).
To examine whether stimulation of hEAAT2 expression involves transcriptional changes, nuclear run-on assays were performed.

hEAAT2 promoter [1] = assay: hEAAT2 promoter luciferase assay of agents in PHFA (FIG. 10); conditions: PHFA passage #3; 10 μM
Experimental: (§1) FIG. 10. Effect of various agents on hEAAT2 promoter activity on primary human fetal astrocytes (PHFA). A: ceftriaxone; B: amoxicillin; C: chloramphenicol; D: thiamphenicol; E: vancomycin; F: glycine; G: glutamate; H: DMSO; I: dibutyryl cAMP. PHFA (passage #3) were seeded at 1×10^5 cells/35-mm plate. Twenty-four h later cells were untreated (CON) or received the indicated compound at a final concentration of 10 μM. Forty-eight h later the cells were transfected with a FL pGL3/EAAT2 luciferase reporter construct (5 μg) plus a pSVβGalactosidase construct (1 μg) using the calcium phosphate precipitation method (Su et al. 2003, Proc. Natl. Acad. Sci. USA 100:1955-1960). After an additional 48 h, cell lysates were prepared and luciferase activity was determined using the Luciferase Assay System Kit (Promega, E1501) and luminescence determined using a luminometer (Turner Designs, TD20/20) (Su et al. 2003, Proc. Natl. Acad. Sci. USA 100:1955-1960). Data presented are the average of 3 independent plates±S.D. Qualitatively similar results were obtained in 2 additional experiments.
as §1, with “Identification of Agents that Modulate hEAAT2 Promoter Activity. FIGS. 10-12 show the effects” for “FIG. 10. Effect”, “in PHFA (FIG. 10), PHFA-Im (FIG. 11) and H4 glioma (FIG. 12) cells. In the studies shown in FIG. 10,” for “on primary human fetal astrocytes (PHFA). A: ceftriaxone; B: amoxicillin; C: chloramphenicol; D: thiamphenicol; E: vancomycin; F: glycine; G: glutamate; H: DMSO; I: dibutyryl cAMP.”

hEAAT2 promoter [2] = assay: hEAAT2 promoter luciferase assay of agents in PHFA-Im (FIG. 11); conditions: 10 μM
Experimental: as §1, with “FIG. 11.” for “FIG. 10.”, “activity in immortalized” for “activity on”, “astrocytes (PHFA-Im).” for “astrocytes (PHFA).”, “cAMP. PHFA-Im is a human telomerase-immortalized clone of primary human fetal astrocytes. PHFA-Im cells” for “cAMP. PHFA (passage #3)”, “at 5×10^4” for “at 1×10^5”
as §1, with “The effects” for “FIG. 10. Effect”, “these same” for “various”, “also were examined in two other cell lines to confirm the generality of the findings. […] PHFA-Im is a cell line developed from a clonal isolate of a” for “on hEAAT2 promoter activity on”, “astrocyte immortalized by transformation with the reverse transcriptase subunit of human telomerase. PHFA-Im cells” for “astrocytes (PHFA). A: ceftriaxone; B: amoxicillin; C: chloramphenicol; D: thiamphenicol; E: vancomycin; F: glycine; G: glutamate; H: DMSO; I: dibutyryl cAMP. PHFA (passage #3)”, “5×10^4” for “1×10^5”

CCCC(=O)Nc1ncnc2c1ncn2[C@@H]1O[C@@H]2COP(=O)(O)O[C@H]2[C@H]1OC(=O)CCC [dbcAMP, dibutyryl cyclic AMP]
relative rate of transcription of hEAAT2 RNA compared with GAPDH (hEAAT2 transcription): elevated
hEAAT2 promoter activity (hEAAT2 promoter [1]): potent stimulators
hEAAT2 promoter activity (hEAAT2 promoter [2]): potent stimulators
